From ChEMBL document CHEMBL1201862, “PubChem BioAssay data set” (2004)
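All cell lines were grown in 96-well plates and treated with compound for 48 hours. GI50: concentration for 50% inhibition of growth.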 Calls of active or inactive are those of the source. No stated cut-off is given here; in the data, active = GI50 up to about 1.1 µM and inactive = higher.

Legend:
Assay in all cases: growth of human tumour cells (NCI), 48 h
786-0 = test system: 786-0
A498 = test system: A498
A549 = test system: A549
ACHN = test system: ACHN
CAKI-1 = test system: CAKI-1
CCRF-CEM = test system: CCRF-CEM
DU-145 = test system: DU-145
EKVX = test system: EKVX
HCC 2998 = test system: HCC 2998
HCT-116 = test system: HCT-116
HCT-15 = test system: HCT-15
HL-60 = test system: HL-60
HOP-62 = test system: HOP-62
HOP-92 = test system: HOP-92
HT-29 = test system: HT-29
Hs-578T = test system: Hs-578T
IGROV-1 = test system: IGROV-1
K562 = test system: K562
KM12 = test system: KM12
LOX IMVI = test system: LOX IMVI
M14 = test system: M14
MCF7 = test system: MCF7
MDA-MB-231 = test system: MDA-MB-231
MDA-MB-435 = test system: MDA-MB-435
MDA-N = test system: MDA-N
MOLT-4 = test system: MOLT-4
Malme-3M = test system: Malme-3M
NCI-H226 = test system: NCI-H226
NCI-H23 = test system: NCI-H23
NCI-H460 = test system: NCI-H460
NCI-H522 = test system: NCI-H522
NCI/ADR-RES = test system: NCI/ADR-RES
OVCAR-3 = test system: OVCAR-3
OVCAR-4 = test system: OVCAR-4
OVCAR-5 = test system: OVCAR-5
OVCAR-8 = test system: OVCAR-8
RPMI-8226 = test system: RPMI-8226
RXF 393 = test system: RXF 393
SF-268 = test system: SF-268
SF-295 = test system: SF-295
SF-539 = test system: SF-539
SK-MEL-28 = test system: SK-MEL-28
SK-MEL-5 = test system: SK-MEL-5
SN12C = test system: SN12C
SNB-19 = test system: SNB-19
SNB-75 = test system: SNB-75
SR = test system: SR
SW-620 = test system: SW-620
TK-10 = test system: TK-10
U-251 = test system: U-251
UACC-257 = test system: UACC-257
UO-31 = test system: UO-31
COLO 205 = test system: COLO 205
PC-3 = test system: PC-3
SK-MEL-2 = test system: SK-MEL-2
SK-OV-3 = test system: SK-OV-3
T47D = test system: T47D
UACC-62 = test system: UACC-62

COC(=O)c1ccc(C)cc1C1CN=NC12Cc1cc(C)c(C)cc1C2=O (stereo unspecified) was tested. Which GI50 (786-0) did it give?
Its GI50 is 54.7 µM (inactive).

What about the GI50 (A498) of the same molecule?
The GI50 was 57.4 µM (inactive).

And the GI50 (A549)?
The GI50 was 34.4 µM (inactive).

And the GI50 (ACHN)?
The GI50 was 29.5 µM (inactive).

What about the GI50 (CAKI-1) of the same molecule?
Its GI50 is 79.8 µM (inactive).

What about the GI50 (CCRF-CEM) of the same molecule?
The GI50 was 31 µM (inactive).

And the GI50 (DU-145)?
The GI50 was 59.2 µM (inactive).

What about the GI50 (EKVX) of the same molecule?
Its GI50 is 24.3 µM (inactive).

What about the GI50 (HCC 2998) of the same molecule?
The GI50 was 29.8 µM (inactive).

What about the GI50 (HCT-116) of the same molecule?
The GI50 was 24.2 µM (inactive).

What about the GI50 (HCT-15) of the same molecule?
Its GI50 is 48.1 µM.

And the GI50 (HL-60)?
Its GI50 is 19.7 µM (inactive).

What about the GI50 (HOP-62) of the same molecule?
Its GI50 is > 100 µM (inactive).

And the GI50 (HOP-92)?
The GI50 was 34.2 µM (inactive).

What about the GI50 (HT-29) of the same molecule?
The GI50 was 25.3 µM (inactive).

What about the GI50 (Hs-578T) of the same molecule?
The GI50 was 46.5 µM (inactive).

What about the GI50 (IGROV-1) of the same molecule?
The GI50 was > 100 µM (inactive).

What about the GI50 (K562) of the same molecule?
The GI50 was 27.4 µM (inactive).

What about the GI50 (KM12) of the same molecule?
Its GI50 is 30.2 µM (inactive).

And the GI50 (LOX IMVI)?
The GI50 was 25.9 µM (inactive).

And the GI50 (M14)?
Its GI50 is 35.4 µM (inactive).

And the GI50 (MCF7)?
Its GI50 is 38.7 µM (inactive).

What about the GI50 (MDA-MB-231) of the same molecule?
Its GI50 is 27 µM (inactive).

What about the GI50 (MDA-MB-435) of the same molecule?
Its GI50 is 24.9 µM (inactive).

And the GI50 (MDA-N)?
The GI50 was 27.9 µM (inactive).

What about the GI50 (MOLT-4) of the same molecule?
Its GI50 is 26.7 µM (inactive).

What about the GI50 (Malme-3M) of the same molecule?
The GI50 was 30.5 µM (inactive).

And the GI50 (NCI-H226)?
Its GI50 is 45.1 µM (inactive).

What about the GI50 (NCI-H23) of the same molecule?
The GI50 was 40.6 µM (inactive).

What about the GI50 (NCI-H460) of the same molecule?
The GI50 was 37.7 µM (inactive).

What about the GI50 (NCI-H522) of the same molecule?
Its GI50 is 27.7 µM (inactive).

What about the GI50 (NCI/ADR-RES) of the same molecule?
The GI50 was 28.6 µM (inactive).

What about the GI50 (OVCAR-3) of the same molecule?
The GI50 was 49.5 µM (inactive).

What about the GI50 (OVCAR-4) of the same molecule?
Its GI50 is > 100 µM (inactive).

And the GI50 (OVCAR-5)?
The GI50 was > 100 µM (inactive).

What about the GI50 (OVCAR-8) of the same molecule?
The GI50 was 65 µM (inactive).

What about the GI50 (RPMI-8226) of the same molecule?
Its GI50 is 27.9 µM (inactive).

What about the GI50 (RXF 393) of the same molecule?
The GI50 was 31.8 µM (inactive).

And the GI50 (SF-268)?
Its GI50 is 36.6 µM (inactive).

And the GI50 (SF-295)?
The GI50 was 47.3 µM (inactive).

And the GI50 (SF-539)?
The GI50 was 50.6 µM (inactive).

What about the GI50 (SK-MEL-28) of the same molecule?
Its GI50 is 45.7 µM (inactive).

And the GI50 (SK-MEL-5)?
Its GI50 is 14.9 µM (inactive).

What about the GI50 (SN12C) of the same molecule?
Its GI50 is 42.4 µM (inactive).

And the GI50 (SNB-19)?
Its GI50 is 42.4 µM (inactive).

And the GI50 (SNB-75)?
Its GI50 is 35.9 µM (inactive).

And the GI50 (SR)?
The GI50 was 48.5 µM (inactive).

What about the GI50 (SW-620) of the same molecule?
Its GI50 is 35.6 µM (inactive).

And the GI50 (TK-10)?
The GI50 was > 100 µM (inactive).

And the GI50 (U-251)?
Its GI50 is 46.7 µM (inactive).

What about the GI50 (UACC-257) of the same molecule?
The GI50 was 53.2 µM (inactive).

What about the GI50 (UO-31) of the same molecule?
The GI50 was 46.1 µM (inactive).

What does the source list for C/C(=N\NC(N)=S)c1ccc2c(c1)Sc1ccccc1O2?
GI50 (786-0): 3.18 µM (inactive); GI50 (A498): 2.59 µM (inactive); GI50 (A549): 2.5 µM (inactive); GI50 (ACHN): 4.55 µM (inactive); GI50 (CAKI-1): 1.04 µM (active); GI50 (CCRF-CEM): 3.67 µM (inactive); GI50 (COLO 205): 1.1 µM (active); GI50 (DU-145): 28.1 µM (inactive); GI50 (EKVX): 1.24 µM (inactive); GI50 (HCC 2998): 1.66 µM (inactive); GI50 (HCT-116): 2.69 µM (inactive); GI50 (HCT-15): 0.593 µM; GI50 (HL-60): 3.88 µM (inactive); GI50 (HOP-62): 3.46 µM (inactive); GI50 (HOP-92): 3.17 µM (inactive); GI50 (HT-29): 1.61 µM (inactive); GI50 (Hs-578T): 3.78 µM (inactive); GI50 (K562): 2.36 µM (inactive); GI50 (KM12): 4.19 µM (inactive); GI50 (LOX IMVI): 2.62 µM (inactive); GI50 (M14): 2.4 µM (inactive); GI50 (MDA-MB-231): 5.05 µM (inactive); GI50 (MDA-MB-435): 0.29 µM (active); GI50 (MDA-N): 0.373 µM (active); GI50 (MOLT-4): 2.54 µM (inactive); GI50 (Malme-3M): 5.53 µM (inactive); GI50 (NCI-H226): 9.23 µM (inactive); GI50 (NCI-H23): 3.7 µM (inactive); GI50 (NCI-H460): 2.83 µM (inactive); GI50 (NCI/ADR-RES): 2.55 µM (inactive); GI50 (OVCAR-3): 1.02 µM (active); GI50 (OVCAR-4): 2.47 µM (inactive); GI50 (OVCAR-5): 4.01 µM (inactive); GI50 (OVCAR-8): 2.48 µM (inactive); GI50 (PC-3): 2.59 µM (inactive); GI50 (RPMI-8226): 2.16 µM (inactive); GI50 (SF-268): 2.36 µM (inactive); GI50 (SF-295): 4.63 µM (inactive); GI50 (SF-539): 2.26 µM (inactive); GI50 (SK-MEL-28): 3.81 µM (inactive); GI50 (SK-MEL-2): 2.11 µM (inactive); GI50 (SK-MEL-5): 1.58 µM (inactive); GI50 (SK-OV-3): 4.11 µM (inactive); GI50 (SN12C): 3.34 µM (inactive); GI50 (SNB-19): 6.55 µM (inactive); GI50 (SNB-75): 2.53 µM (inactive); GI50 (SR): 0.485 µM (active); GI50 (SW-620): 2.56 µM (inactive); GI50 (T47D): 6.61 µM (inactive); GI50 (TK-10): 3.73 µM (inactive); GI50 (U-251): 2.37 µM (inactive); GI50 (UACC-257): 6.14 µM (inactive); GI50 (UACC-62): 2.42 µM (inactive); GI50 (UO-31): 2.88 µM (inactive)

CC1C(=O)C(C)C(c2ccccc2)N(C)C1c1ccccc1 (stereo unspecified) was tested. Which GI50 (HL-60) did it give?
Its GI50 is 39.8 µM (inactive).

And the GI50 (HT-29)?
Its GI50 is 47.6 µM (inactive).

And the GI50 (MOLT-4)?
The GI50 was 34.5 µM (inactive).

And the GI50 (OVCAR-5)?
The GI50 was 63.8 µM (inactive).

What about the GI50 (SR) of the same molecule?
Its GI50 is 32.3 µM (inactive).
